Measurements: EP2616456B1, “NUCLEAR EXPORT INHIBITORS” (Universitätsmedizin der Johannes Gutenberg-Universität Mainz, priority 2010, dated 2012)
“Also recorded” adds a separate entry of the source.

Columns and labels:
[1] = target: human CRM1 (Crm1-HA) (Homo sapiens, UniProt O14980); experiment: In vitro pull-down of Crm1-HA with GST-SurvivinNES-GFP beads; type: binding; conditions: preincubation 400nM, 30min at 4°C
Protocol: The binding of LMB and of compounds C3 and C5 to CRM1 was examined by in vitro pull-down assays as described by Stauber et al., 2006. Briefly, in vitro coupled transcription/translation was performed using the TNT reticulocyte lysate system (Promega, Madison, WI, USA) supplemented with methionine (Promega, Madison, WI, USA) and plasmid pCrm1_HA (1µg), encoding a hemagglutinin epitope-tagged version of human CRM1 (Crm1-HA), as the template. Equal amounts of the Crm1-HA TNT reaction were preincubated with either DMSO (negative control; 0.1%), LMB (400nM, final concentration), C3 (1 mM; final concentration) or C5 (1mM; final concentration) in binding-buffer containing 5mM MgCl2 (AppliChem, Darmstadt, Germany), 2mM GTP (PEQLAB, Erlangen, Germany), 50mM Hepes pH 7.9 (AppliChem, Darmstadt, Germany), 200mM KCI (AppliChem, Darmstadt, Germany), 0.4% Tween 20 (AppliChem, Darmstadt, Germany), supplemented with complete protease inhibitor cocktail (Roche, Mannheim, Germany) for 30min at 4°C. Subsequently, GST-Sepharose beads loaded with 25µg recombinant GST-SurvivinNES-GFP and 5µg GST-RanQ96L were added to each drug-treated TNT reaction. Recombinant GST-SurvivinNES-GFP and GST-RanQ96L were purified from bacteria as described by Stauber et al., 2006. Pull-down was performed for 4h at 4°C in a rotating wheel. Samples were then centrifuged (3500rpm, 1min, 4°C) to recover the GST-SurvivinNES-GFP beads with bound Crm1-HA. Beads were washed three times with binding-buffer (500µl each washing step, 3500rpm, 1min, 4°C). Finally, bound proteins were eluted by adding 25µl 2xSDS-sample buffer (250mM Tris-HCl pH 6.8; 2% w/v SDS, 20% glycerol, 2% β-mercaptoethanol, 0.002% w/v bromophenol blue) and incubating at 95°C for 2min. Samples were separated by SDS-gelelectrophoresis and analyzed by immunoblot analysis as described by Stauber et al., 2006. Crm1-HA was detected with HA specific antibodies (MMS-101R, Covance, New Jersey, USA). GFP served as the loading control and was visualized with GFP specific antibodies (sc-8334, Santa Cruz Biotechnology, Heidelberg, Germany).

[2] = system: RevNES-biosensor; experiment: RevNES-biosensor translocation (NES-mediated nuclear export) in living HeLa cells, fluorescence microscopy; type: cell-based; conditions: for Cellular localization of green fluorescent RevNES-biosensor: HeLa
Protocol: The activity of compounds C3, C5 and C24 to inhibit NES-mediated nuclear export in living cells was analyzed as described in Fetz et al., 2009 using living HeLa (cervix carcinoma), FaDu (head and neck cancer), MDA-MB231 (mammacarcinoma) and SW480 cells (colon cancer) which transiently expressed the RevNES-biosensor. The RevNES-biosensor is a fusion protein composed of (from N to C terminus) the SV40 large T-antigen nuclear localization signal (NLS), glutathion-S-transferase (GST), green fluorescent protein (GFP) and the nuclear export signal (NES) of the HIV-1 (human immunodeficiency virus) Rev protein (RevNES).
The cells of the control were treated with a corresponding amount of DMSO only. The cellular localization of RevNES-biosensor was monitored by fluorescence microscopy. […] Maximum of cellular accumulation was observed after 1h (C24), after 2h (C3) and after 5h (C5), respectively. […] Thus, the inhibitory activity of C3 and C24 (reversible) but not of C5 (irreversible) was reversed after 24h. Table 1: Cellular localization of green fluorescent RevNES-biosensor
Table 3: Cellular localization of green fluorescent RevNES-biosensor
(§1) IC50 value corresponds to compound concentration reducing HeLa cell viability by 50%. Topt is the time point post treatment when maximum nuclear export inhibition was observed by fluorescence microscopy. Table 4: Functional characteristics of nuclear export inhibitors

[3] = system: HeLa cells; experiment: Cell viability (CellTiter-Glo) and cell death, HeLa; type: cell-based; conditions: Homo sapiens; compound concentration reducing HeLa cell viability by 50%
Protocol: To test the anti-cancer activity of the compounds, several cancer cell lines, currently used as models for different epithelial cancers and leukemias, were treated with the indicated inhibitors. […] Every 24h, the cell culture medium was replaced by fresh compound-containing medium. 72h post treatment, cell were analyzed by adding 100µl CellTiter-Glo® assay reagent (Promega). Luminescence was measured with a LuminoskanAscent device (ThermoScientific). Cells treated with a corresponding amount of DMSO only were use as a control. The luminescence (equals cell viability) of said control was set to 100%.
as §1
(§2) It was assessed whether the export inhibitors also affect the viability of non-malignant human cells, precluding their potential (pre)clinical use. 10^3 freshly isolated non-malignant primary human fibroblasts (HTF-8) or HeLa cells/well were seeded and 24h later treated with the indicated compounds (final concentration: 100µM). Every 24h cell culture medium was replaced by freshly prepared compound-containing medium. 72h post treatment the cells were analyzed by adding 100µl CellTiter-Glo® assay reagent, and luminescence measured with a LuminoskanAscent (ThermoScientific). Cells treated with DMSO only were used as a control. The fluorescence measured (equals cell viability) with said control was set to 100%.

[4] = system: Survivin; experiment: Nuclear export of Survivin-GFP fusion transiently expressed in HeLa cells; type: cell-based; conditions: transient expression, 25µM
Protocol: The activity of compounds to inhibit the export of the oncologically relevant protein Survivin as well as of the HIV-1 Rev protein was analyzed.
Nuclear export of Survivin is crucial for its tumor promoting cytoprotective activity (Engels et al., 2007; Knauer et al., 2007a; Knauer et al., 2007b).

[5] = system: HTF-8; experiment: Viability (CellTiter-Glo) and cell death of non-malignant primary fibroblasts HTF-8; type: cell-based; conditions: HTF-8 non-malignant primary human fibroblasts, 100µM, 72h
Protocol: as §2, with “10^3 freshly isolated non-malignant primary human fibroblasts (HTF-8) or HeLa cells/well were seeded and 24h later treated with the indicated compounds (final concentration: 100µM).” left out

[6] = system: HIV-1 Rev protein; experiment: Nuclear export of HIV-1 Rev-GFP in actinomycin D treated HeLa cells; type: cell-based; conditions: 25µM
From the text: The HIV-1 Rev protein transports unspliced and incompletely spliced viral RNAs from the nucleus into the cytoplasm (Stauber et al., 1995). As such, Rev's export function is crucial for viral replication and AIDS development (Pavlakis and Stauber, 1998; Stauber et al., 1995).

human CRM1 (Crm1-HA), sequence (O14980 whole entry): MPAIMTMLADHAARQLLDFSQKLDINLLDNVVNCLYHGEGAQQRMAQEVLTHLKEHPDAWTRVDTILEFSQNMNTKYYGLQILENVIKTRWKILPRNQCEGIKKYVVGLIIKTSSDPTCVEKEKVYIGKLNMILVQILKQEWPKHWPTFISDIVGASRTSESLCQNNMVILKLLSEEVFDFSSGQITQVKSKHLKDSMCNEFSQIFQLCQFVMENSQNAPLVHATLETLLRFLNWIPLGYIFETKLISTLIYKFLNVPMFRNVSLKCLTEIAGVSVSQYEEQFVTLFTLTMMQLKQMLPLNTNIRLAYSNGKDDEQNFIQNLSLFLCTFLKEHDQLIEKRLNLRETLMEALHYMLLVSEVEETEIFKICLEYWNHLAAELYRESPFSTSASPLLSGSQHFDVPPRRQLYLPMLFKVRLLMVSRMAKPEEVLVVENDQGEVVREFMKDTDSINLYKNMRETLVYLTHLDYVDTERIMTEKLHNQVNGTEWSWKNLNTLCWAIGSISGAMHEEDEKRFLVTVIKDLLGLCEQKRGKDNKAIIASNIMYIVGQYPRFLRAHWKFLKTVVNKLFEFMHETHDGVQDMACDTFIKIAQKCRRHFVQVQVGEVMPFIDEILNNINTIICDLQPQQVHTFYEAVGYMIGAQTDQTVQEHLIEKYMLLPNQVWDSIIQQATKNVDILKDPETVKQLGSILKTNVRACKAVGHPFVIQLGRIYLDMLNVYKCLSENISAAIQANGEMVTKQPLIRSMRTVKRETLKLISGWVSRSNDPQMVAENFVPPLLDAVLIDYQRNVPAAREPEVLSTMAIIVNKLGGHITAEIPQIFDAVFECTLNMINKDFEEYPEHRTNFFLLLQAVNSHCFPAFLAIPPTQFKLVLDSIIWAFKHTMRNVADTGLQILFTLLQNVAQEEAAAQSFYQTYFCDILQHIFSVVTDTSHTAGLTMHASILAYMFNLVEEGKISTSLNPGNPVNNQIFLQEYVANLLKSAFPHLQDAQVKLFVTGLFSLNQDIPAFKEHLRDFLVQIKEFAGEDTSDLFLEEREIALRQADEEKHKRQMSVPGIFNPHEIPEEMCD

Structure (SMILES) | interaction of Crm1-HA with the export substrate GST-SurvivinNES-GFP [1] | Cellular localization of green fluorescent RevNES-biosensor ([2]; 25µM, T = 24h) | Cellular localization of green fluorescent RevNES-biosensor ([2]; 25µM, at Topt) | Topt at 25µM ([2]; Table 4, 25µM, fluorescence microscopy) | Mode of Inhibition ([2]; reversal of export inhibition after 24h, C5: 5-12h observation) | IC50 [3] | Localization of Survivin-GFP fusion (nuclear export of Survivin) [4] | viability compared to the control [5] | Localization of HIV-1 Rev-GFP (nuclear export of HIV-1 Rev protein) [6]
CCC(=C/[C@H](C)C/C=C/C(C)=C/[C@@H](C)C(=O)[C@@H](C)[C@H](O)[C@@H](C)C/C(C)=C/C(=O)O)/C=C/[C@@H]1OC(=O)C=C[C@@H]1C [LMB, leptomycin B, reference compound] | prevented the interaction |  |  |  |  |  |  |  | 
NC(=O)c1c(NC(NC(=O)c2cccc(F)c2)(C(F)(F)F)C(F)(F)F)sc2c1CCC2 [Compound C24, 2-[[1,1,1,3,3,3-hexafluoro-2-[(3-fluorobenzoyl)amino]propan-2-yl]amino]-5,6-dihydro-4H-cyclopenta[b]thiophene-3-carboxamide] |  | predominantly localized in the cytoplasm | nuclear accumulation; also recorded: nucleus | ∼1h | reversible | 31 µM | accumulated in the nucleus | do not affect viability | restored the nuclear accumulation
